Results on 3 molecules are retold here after patent US6841684B2, “Imidiazoles having reduced side effects” (Allergan, Inc., priority 1997, dated 2005).

Marks after values point to notes of the source that are not given here.

Series [1] relates to cynomolgus monkeys with sustained elevated IOP. Put plainly: IOP lowering in conscious monkeys, eyes made hypertensive by argon laser photocoagulation. The class given is in vivo, cynomolgus monkey. To be noted: Macaca fascicularis, topical, 6 h, single 50 μl eye drop, up to 6 hours, read-out: Maximum % Decrease From Pretreatment Levels Hypertensive Eye (IOP); for inhibition in vivo at 0.1 %: ocular dose 0.1%; for inhibition in vivo at 0.3 %: ocular dose 0.3%. From the text:
Measurements of IOP were made in fully conscious female cynomolgus monkeys weighing 3-4 kg with sustained elevated IOP that was produced in the right eye by argon laser photocoagulation of the trabecular meshwork. Animals were usable for experiments 2 months following surgery. During the experiments, monkeys sat in specially designed chairs (Primate Products, San Francisco), and were fed orange juice and fruit as needed. A 30R model Digilab pneumatonometer (Alcon, Tex.) was used to measure IOP.
Twenty five μl of an anesthetic (proparacaine) was topically applied to each monkey before IOP measurements to minimize ocular discomfort due to tonometry. Two baseline measurements were made prior to instillation of the drugs, followed by periodic measurements up to 6 hours post-instillation. The test compounds were administered unilaterally as a single 50 μl eye drop; the contralateral eyes received an equal volume of saline.

Series [2] has as its system conscious cynomolgus monkeys. Put plainly: Sedation score during the IOP experiments. The class given is in vivo, cynomolgus monkey. Also noted: key to Sedation (0-4): 0=alert, typical vocalization, movement, etc.; 1=calm, less movement; 2=slightly sedated, some vocalization, responsive to stimulation; 3=sedated, no vocalization, some response to stimulation; 4=asleep. To be noted: for sedation (in words): ocular administration, monkeys. The method, then: At the same time, sedation was measured and assessed according to the following score: 0=alert, typical vocalization, movement, etc.; 1=calm, less movement; 2=slightly sedated, some vocalization, responsive to stimulation; 3=sedated, no vocalization, some response to stimulation; 4=asleep.

For series [3], the system named is conscious cynomolgus monkeys. Nature of the series: Cardiovascular side effects (blood pressure, heart rate) after i.v. administration. Format: in vivo, cynomolgus monkey. To be noted: up to 6 hours, + with * = increase from base levels. From the text:
Cardiovascular measurements were made in a different group of monkeys using a BP 100S automated sphygmomanometer (Nippon Colin,. Japan).

Series [4] concerns the target T1, rat α2B (RNG gene) receptor (Rattus norvegicus, UniProt P19328).
T1 construct: expressed in transfected cells; host or cells: NIH-3T3 cells, calcium phosphate cotransfection
T1 sequence (P19328 1-453): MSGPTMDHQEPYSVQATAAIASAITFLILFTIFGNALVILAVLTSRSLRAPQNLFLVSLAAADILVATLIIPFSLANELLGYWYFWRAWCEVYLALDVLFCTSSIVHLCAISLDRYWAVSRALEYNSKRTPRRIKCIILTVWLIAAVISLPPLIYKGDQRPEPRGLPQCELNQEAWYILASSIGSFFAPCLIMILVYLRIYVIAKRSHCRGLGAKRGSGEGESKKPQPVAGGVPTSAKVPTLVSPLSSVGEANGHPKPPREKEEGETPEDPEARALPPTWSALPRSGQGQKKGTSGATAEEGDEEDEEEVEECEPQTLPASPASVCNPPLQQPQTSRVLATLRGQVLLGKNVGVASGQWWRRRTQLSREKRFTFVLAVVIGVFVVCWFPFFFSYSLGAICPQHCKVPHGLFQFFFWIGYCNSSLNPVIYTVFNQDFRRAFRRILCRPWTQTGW
Nature of the series: RSAT (Receptor Selection and Amplification Technology) assay, alpha 2B. The class given is cell-based. To be noted: ratio of maximal effect to that of standard full agonist oxymetazoline. The method in brief:
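NIH-3T3 cells transiently cotransfected with receptor, hybrid Gq/i5 protein and β-galactosidase marker were incubated with compound dilutions in triplicate for 72-96 hr at 37°. Proliferation was read as β-galactosidase activity (o-nitrophenyl-β-D-galactopyranoside, overnight at 30°, OD 420 nm). EC50 and efficacy were derived, the latter relative to a standard full agonist's maximal effect.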

Series [5] relates to rat retinal ganglion cells after optic nerve injury. Put plainly: Calibrated rat optic nerve injury model, retinal ganglion cell numbers. Format: in vivo. From the text:
These models include light-induced photoreceptor degeneration in albino rat, as described in Wen et al, “Alpha2-adrenergic agonists induce basic fibroblast growth factor expression in photoreceptors in vivo and ameliorate light damage.” J. Neurosci. […] Invest. Ophthalmol. Vis. Sci. 37, 540,S114. […] Additionally commonly assigned and co-pending application, 08/496,292 filed on 28 Jun.

A further series has as its system rats. Put plainly: Sedative activity measured using an activity chamber. To be noted: for Sedation (%): 30 minutes after dosing; for sedation (in words): intrathecal or intraperitoneal, rats. The class given is in vivo, rat. From the text:
(§1) Alleviation of pain including neuropathic pain is another example of a disorder in which the compounds of the invention are useful and advantageous since pain is alleviated without undesirable side effects. […] (See, for example, Kim, S. and Chung, J. “An experimental model for peripheral neuropathy produced by segmental spinal nerve ligation in the rat.” Pain 50 pp. 355-363 (1992).) Following ligation of two spinal nerves, the animals develop a sensitivity to normally non-painful stimuli such as touch. The ability of alpha2 compounds to reverse this sensitivity, called allodynia, was tested 30 minutes after dosing by either intrathecal or intraperitoneal administration. The sedative activity of each compound was also measured using an activity chamber.

Series [6] has as its system rats with ligation of two spinal nerves. Put plainly: Spinal nerve ligation model of neuropathic pain, reversal of tactile allodynia. To be noted: 30 minutes after dosing. The class given is in vivo, rat.
Text: as §1

Consider `Cl.O=C1c2ccsc2CCC1Cc1c[nH]cn1` (stereo not drawn) [Example B-9b, 5-(1H-imidazol-4(5)-ylmethyl)-6,7-dihydro-5H-benzo[b]thiophen-4-one, hydrogen chloride salt], for which, in series [1], the inhibition in vivo at 0.1 % is 18.7 ± 5.5% and the inhibition in vivo at 0.3 % turned out to be 26.9 ± 6.1%. In addition, the “Sedation (0-4)” value in series [2] (ocular dose 0.1%) stood at 0. The “Sedation (0-4)” value in series [2] (ocular dose 0.3%) worked out at 0. Further, in series [3] (i.v. 500 μg/kg), the “Maximum % Decrease From Pretreatment Levels, Heart Rate” value was “+20.2 ± 3.4* %” and the “Maximum % Decrease From Pretreatment Levels, Mean Arterial Blood Pressure” value is on record as 2.8 ± 1.8%. In addition, in series [4], the “Intrinsic Activity Relative to Oxymetazoline, Alpha 2B” value turned out to be 0.68. In addition, the “Retinal Ganglion Cell Numbers at 2 Weeks Post-Injury” value in series [5] (0.5 mg/kg i.p., vehicle control 33 ± 8) is on record as 73 ± 12 cells/microscopic field. The “neuroprotection (in words)” value in series [5] (calibrated rat optic nerve injury model) is given as “neuroprotective”.
As for `Brc1c(NC2=NCCN2)ccc2nccnc12` [brimonidine, reference compound], the inhibition in vivo at 0.1 % in series [1] is 25 ± 3%. Besides, the inhibition in vivo at 0.3 % in series [1] was 40 ± 4%. Also, the figures for the “sedation (in words)” value (in series [2]; with rats) were “caused sedation” and “cause sedation at doses only slightly higher than their anti-allodynic doses”, respectively. In addition, the “Sedation (0-4)” value worked out at 1 in series [2] (ocular dose 0.1%) and 2 in series [2] (ocular dose 0.3%). The “Sedation (%)” value in the series with rats (intraperitoneal 30 mg/kg) is listed as 24%; with rats (intraperitoneal 300 mg/kg), 67* %. Moreover, the “Maximum % Decrease From Pretreatment Levels, Heart Rate” value in series [3] (i.v. 17 μg/kg) was 52 ± 3%; in series [3] (i.v. 50 μg/kg) it was 54 ± 3%. Moreover, the “Maximum % Decrease From Pretreatment Levels, Mean Arterial Blood Pressure” value in series [3] (i.v. 17 μg/kg) stood at 36 ± 3%; in series [3] (i.v. 50 μg/kg), 37 ± 5%. Moreover, the figures for the “Reversal of Tactile Allodynia (%)” value in series [6] (intraperitoneal 3 mg/kg) and in series [6] (intraperitoneal 30 mg/kg) were 0% and 37* %, respectively.
As to `Clc1cccc(Cl)c1N=C1NCCN1` [clonidine, reference compound], the inhibition in vivo at 0.3 % in series [1] came to 41 ± 5%. Also, the “sedation (in words)” value in series [2] was “caused sedation”; in the series with rats it was “cause sedation at doses only slightly higher than their anti-allodynic doses”. Moreover, the entries for the “Sedation (0-4)” value in series [2] (ocular dose 0.1%) and in series [2] (ocular dose 0.3%) were 1 and 2, respectively. Besides, the figures for the “Sedation (%)” value in the series with rats (intrathecal 1 μg) and with rats (intrathecal 10 μg) were 15% and 60* %, respectively. The “Maximum % Decrease From Pretreatment Levels, Heart Rate” value in series [3] (i.v. 17 μg/kg) was determined as 32 ± 4%; in series [3] (i.v. 50 μg/kg), 50 ± 5%. Moreover, the “Maximum % Decrease From Pretreatment Levels, Mean Arterial Blood Pressure” value in series [3] (i.v. 17 μg/kg) was 29 ± 7%; in series [3] (i.v. 50 μg/kg) it was 35 ± 5%. For the same molecule, the “Reversal of Tactile Allodynia (%)” value in series [6] (intrathecal 0.1 μg) is 20* %; in series [6] (intrathecal 1 μg), 96* %.
